Laboratory results from patent EP0252380B1, “Antibiotic LL-E19020 alpha and beta” (AMERICAN CYANAMID COMPANY, priority 1986, dated 1988).
Converted amounts (≈) assume the structure as drawn. Read-outs that look alike come from different tables or passages of the source. Marks after values point to notes of the source that are not given here.

Tests used:
Treponema hyodysenteriae [1] = assay: Minimum inhibitory concentration by microdilution (Table VII); format: cell-based; conditions: Brachyspira hyodysenteriae, read-out: MIC
[2] = tested on: Mycoplasma gallisepticum "R"; assay: Minimum inhibitory concentration assay for Mycoplasma gallisepticum (microdilution, Table VII); conditions: Mycoplasmoides gallisepticum
Treponema hyodysenteriae [3] = assay: T. hyodysenteriae disk test (primary in vitro disk diffusion test); conditions: Brachyspira hyodysenteriae
[4] = tested on: Pasteurella haemolytica 30660; assay: Pasteurella disk test (primary in vitro disk diffusion test); format: cell-based; conditions: Mannheimia haemolytica; disks soaked in 2.5 mg/ml solution; strain 30660
[5] = tested on: Pasteurella multocida 31081B; assay: as above; conditions: Pasteurella multocida, 31081B, read-out: ZONE SIZE
[6] = Weight gain and feed efficiency of broiler chicks (Example 6, Table IX); format: in vivo, Peterson X Arbor Acres chicks; conditions: 200 PPM in diet
[7] = Weight gains and feed efficiency in broiler chicks treated with E19020 alpha (Table IX A); format: in vivo; conditions: 200 PPM
Method: Five male and five female one day old Peterson X Arbor Acres chicks are allotted to starter battery cages by weight. Cages are randomized to treatment groups with seven replicates per treatment. […] The positive standard is penicillin at 200 ppm. Diets are prepared weekly.

[8] = tested on: In Vitro Rumen Fermentation; assay: Propionate enhancement activity during in vitro rumen fermentation; format: cell-based, steer; conditions: for A:P: acetate/propionate ratio
Method: The drugs are dissolved or suspended (sonified if necessary) in a 0.1% Tween 20-ethanol-water vehicle and 25-50 ul is added to the incubation. The reaction is terminated with 6N HCl and centrifuged at 20,000 x g. Alliquots of the superinatant are analyzed for volatile fatty acid (VFA) content by gas-liquid chromatography.

[9] = ATCC27164, strain B78 (ATCC 27164)
[10] = ATCC31212, strain B204 (ATCC 31212)

In the case of `COC(=O)N/N=C/c1c[n+]([O-])c2ccccc2[n+]1[O-]` [CARBADOX, reference compound], the MIC (Treponema hyodysenteriae [1]; [9]) is reported as 0.5 µg/mL (≈ 1.91 µM) and the MIC (Treponema hyodysenteriae [1]; [10]) is reported as 0.25 µg/mL (≈ 0.953 µM).

For `CC[C@H]1OC(=O)C[C@@H](O)[C@H](C)[C@@H](O[C@@H]2O[C@H](C)[C@@H](O[C@H]3C[C@@](C)(O)[C@@H](O)[C@H](C)O3)[C@H](N(C)C)[C@H]2O)[C@@H](CC=O)C[C@@H](C)C(=O)/C=C/C(C)=C/[C@@H]1CO[C@@H]1O[C@H](C)[C@@H](O)[C@@H](OC)[C@H]1OC` [TYLOSIN, reference compound], the MIC [2] was 0.03 µg/mL (≈ 0.0327 µM).

`C=C[C@]1(C)C[C@@H](OC(=O)CSCCN(CC)CC)[C@]2(C)[C@H](C)CC[C@]3(CCC(=O)[C@H]32)[C@@H](C)[C@@H]1O` [TIAMULIN, reference compound] showed an MIC (Treponema hyodysenteriae [1]; [9]) of 0.015 µg/mL (≈ 0.0304 µM), an MIC (Treponema hyodysenteriae [1]; [10]) of 0.015 µg/mL (≈ 0.0304 µM) and a zone of inhibition at 2500 µg/mL (Treponema hyodysenteriae [3]; ATCC27164, read-out: ZONE SIZE) of 67 mm. It also gave a zone of inhibition at 2500 µg/mL (Treponema hyodysenteriae [3]; ATCC31212, read-out: ZONE SIZE) of 70 mm.

In the case of `CN(C)C1C(=O)C(C(N)=O)=C(O)C2(O)C(=O)C3=C(O)c4c(O)ccc(Cl)c4C(C)(O)C3CC12` (stereo not shown) [CTC, reference compound], the zone of inhibition at 2500 µg/mL [4] is reported as 11 mm, the zone of inhibition at 2500 µg/mL (Treponema hyodysenteriae [3]; ATCC27164, read-out: ZONE SIZE) is reported as 45 mm and the zone of inhibition at 2500 µg/mL (Treponema hyodysenteriae [3]; ATCC31212, read-out: ZONE SIZE) is reported as 37 mm. It also gave a zone of inhibition at 2500 µg/mL [5] of 25 mm and an MIC [2] of 0.5 µg/mL (≈ 1.04 µM).

With Penicillin [reference compound] the “Wg Gains And Feed Efficiency % Improvement Over Controls COMBINED” value [6] was 3.5%, the “Wg Gains And Feed Efficiency % Improvement Over Controls FEMALES” value [6] was 4.2% and the “Wg Gains And Feed Efficiency % Improvement Over Controls MALES” value [6] was 2.4%. The “Wg Gains And Feed Efficiency % Improvement Over Controls FEED/GAIN” value ([6]; control 1.41) was 1.35**, the “FEED/GAIN % I[…] CONTROLS 0-3 WEEKS” value [7] was 3.5% and the “FEED/GAIN % I[…] CONTROLS 0-7 WEEKS” value [7] was 6.0%. For the same molecule, the “WEIGHT GAIN % I[…] CONTROLS 0-3 WEEKS” value [7] was 4.9%, the “WEIGHT GAIN % I[…] CONTROLS 0-7 WEEKS” value [7] was 3.4% and the “FEED/GAIN 0-3 WEEKS” value ([7]; control 1.43) was 1.38**. For the same molecule, the “FEED/GAIN 0-7 WEEKS” value ([7]; control 1.99) was 1.87**, the “WEIGHT GAIN IN GRAMS 0-3 WEEKS” value ([7]; control 608) was 638* GRAMS and the “WEIGHT GAIN IN GRAMS 0-7 WEEKS” value ([7]; control 2145) was 2217 GRAMS.

With AVOPARCIN [reference compound] the “A:P” value ([8]; Table X, 1.0 PPM, control 2.65) was 2.38, the “TOTAL VFA” value ([8]; Table X, 1.0 PPM, control 159.4) was 159.4 mM and the “A:P” value ([8]; Table X, 2.000 PPM, control 2.65) was 2.23. For the same molecule, the “TOTAL VFA” value ([8]; Table X, 2.000 PPM, control 159.4) was 160.2 mM, the “A:P” value ([8]; Table X, 4.0 PPM, control 2.65) was 2.12 and the “TOTAL VFA” value ([8]; Table X, 4.0 PPM, control 159.4) was 158.9 mM. For the same molecule, the “A:P” value ([8]; Table X, 8.0 PPM, control 2.65) was 2.08, the “TOTAL VFA” value ([8]; Table X, 8.0 PPM, control 159.4) was 158.3 mM and the “A:P” value ([8]; Table XI, 1.0 PPM, control 2.19) was 2.02. The “TOTAL VFA” value ([8]; Table XI, 1.0 PPM, control 125.3) was 126.9 mM, the “A:P” value ([8]; Table XI, 2.0 PPM, control 2.19) was 1.98 and the “TOTAL VFA” value ([8]; Table XI, 2.0 PPM, control 125.3) was 125.3 mM. For the same molecule, the “A:P” value ([8]; Table XI, 4.0 PPM, control 2.19) was 1.90, the “TOTAL VFA” value ([8]; Table XI, 4.0 PPM, control 125.3) was 121.3 mM and the “A:P” value ([8]; Table XI, 8.0 PPM, control 2.19) was 1.88. For the same molecule, the “TOTAL VFA” value ([8]; Table XI, 8.0 PPM, control 125.3) was 119.4 mM.
